{"source": "patent US20050187288A1", "about": "“Beta-lapachone and methods of treating cancer” (priority 2004, published 2005)", "key": {"E2F1": {"tested_on": "E2F1", "experiment": "E2F1 induction", "type": "cell-based, human", "design": "key: “+” symbol represents overexpression of E2F1 relative to a control"}, "[1]": {"tested_on": "PaCa-2 pancreatic cancer cells", "experiment": "cells", "details": "Homo sapiens"}, "[2]": {"experiment": "Pharmacokinetic data from toxicology study in dogs, one-hour intravenous infusion", "type": "in vivo", "details": "both sexes, dog", "protocol": "In this study, two dogs (one male, one female) were administered β-lapachone intravenously in the HPBCD formulation over one hour. The animals received escalating doses of 5, 15, 30 and 45 mg/kg, with three to four days between doses. The mean response of the two dogs is shown at each dose level. […] Doses up to and including 30 mg/kg produced no toxicity."}, "[3]": {"tested_on": "human Panc-1 pancreatic cancer cells", "type": "in vivo, mice", "protocol": "The animals were randomized into three groups. […] Mean tumor volume was then analyzed."}, "SK-OV-3": {"tested_on": "SK-OV-3", "details": "human, 4 h", "quoted_text": "(§1) Control plates received the same volume of DMSO alone. After a 4 hour exposure the drug was carefully removed, and drug-free medium could be added. […] Colonies of greater than 50 cells were scored as survivors. Cells were maintained at 37° C. in 5% CO2 in complete humidity."}, "MCF-7": {"tested_on": "MCF-7", "details": "human, 4 h", "quoted_text": "as §1"}, "[4]": {"experiment": "Study 4B: cardiovascular, pulmonary study in anesthetized dogs", "type": "in vivo", "protocol": "In Study No. 4B, adult female Beagle dogs (one male in control group) were randomized into three study groups (3 animals/group) as shown in Table 17.\nFor measurement of cardiovascular function, a lead II ECG was obtained with subdermal needle electrodes and an ECG signal conditioner. Heart rate (HR) was measured with a pulse rate tachometer. The right femoral artery was cannulated with a catheter connected to a pressure transducer and pressure processor for recording mean, systolic and diastolic arterial blood pressure (BP). The left femoral artery was exposed by a flank incision and a probe (2.5 mm i.d.) connected to an electromagnetic flowmeter was placed around the artery for measurement of blood flow (BF). […] For measurement of pulmonary function, a 5.0 mm endotracheal tube connected to a pneumotachograph recorded integrated flow to yield a continuous recording of respiratory rate (RR). Intrapleural pressure was obtained from an esophageal balloon placed in the lower third of the esophagus. Transpulmonary pressure, the difference between thoracic (i.e. the external end of the endotracheal tube) and pleural pressure, was measured with a differential pressure transducer. Measurements of respiratory flow and transpulmonary pressure were used to compute total lung resistance (RL) and dynamic compliance (CDYN).\nAll parameters were measured and recorded immediately before (0 minute) and 5, 10, 30, 60, 90 and 120 minutes after start of the infusion. The mean±SEM value and the percentage relative to pretreatment values at each observation time point after dosing were calculated, and Dunnett's test was applied for comparison between vehicle control group and test substance treated group at the relative observation time interval. Differences were considered significant at p<0.05 level."}, "[5]": {"tested_on": "A549 human lung cancer cells", "details": "60 mg/kg IP every three days, 8 treatments", "quoted_text": "Athymic female nude mice (Ncr) were inoculated subcutaneously with 4×10^6 A549 human lung cancer cells, and the tumors were allowed to grow to 50 mm^3 in size. The animals were randomized into three groups of seven animals per group. […] Mean tumor volume was then analyzed."}, "[6]": {"details": "dog, in vivo", "description": "(§2) On Day 23 of the study, 4 animals/sex/group were euthanized (barbiturate overdose) followed by exsanguination and subjected to necropsy as described below."}, "G480 lung cancer cells": {"tested_on": "G480 lung cancer cells", "experiment": "Colony formation assay, single agents and combination", "type": "cell-based", "from_the_text": "Control plates received the same volume of DMSO alone. […] Treated wells were presented as percentage of control. Data were presented as an average (+SEM) from three independent experiments."}, "DU-145": {"tested_on": "DU-145", "experiment": "cells", "details": "Homo sapiens, DU-145, read-out: LC50 (Replicate Results), DU-145, 4 hour exposure, colonies after 14-21 days", "quoted_text": "as §1"}, "[7]": {"experiment": "Study 2B: dose-range-finding toxicity study, single intravenous administration in dogs", "details": "two dogs", "quoted_text": "The time interval between each dose was three to four days.\nWhole blood samples (1 ml/sample) were also collected on each day of dose administration for toxicokinetics analysis."}, "SK-MEL-28 [8]": {"tested_on": "SK-MEL-28", "experiment": "cells", "details": "Homo sapiens, SK-MEL-28, read-out: LC50 (Replicate Results), SK-MEL-28, 4 hour exposure, colonies after 14-21 days", "quoted_text": "as §1"}, "[9]": {"tested_on": "normal breast epithelial cells (MCF-10A)", "experiment": "Colony formation assay, cancer vs normal breast cells", "type": "cell-based, human", "details": "4 h treatment", "from_the_text": "After 10-20 days, cells were fixed and stained with modified Wright-Giemsa stain."}, "[10]": {"tested_on": "DU145 human prostate cancer", "experiment": "Human prostate cancer xenograft model", "type": "in vivo, mice", "protocol": "Tumors were measured throughout treatment and the post-treatment observation period. […] Tumor nodules were measured during the treatment period (Days 21-43) and at the end of observation (Day 56). Dose-related inhibition of tumor growth is seen, with little tumor growth following completion of treatment. […] Tumor nodules were measured pre-treatment (“Pre-Tx”), at the end of the 30-day treatment period (“Post-Tx”) and at the conclusion of the post treatment observation period 14 days following termination of treatment (“Post-Exp't”)."}, "[11]": {"experiment": "Study 2A: repetitive weekly intravenous toxicity study in dogs", "details": "for decreased hemoglobin: Day 23", "description": "as §2"}, "SK-MEL-28 [12]": {"tested_on": "SK-MEL-28", "details": "human, 4 h", "quoted_text": "as §1"}, "[13]": {"details": "40 mg/kg, by the end of the infusion"}, "[14]": {"details": "4 μM for 4 hours, vs carrier alone"}}, "note": "Values joined by “and” are separate entries in the source; they are usually repeats but may differ in a detail not shown here. Equal entries are not always repeated. Where two headings read alike, the source gives them in different places."}
{"compound": "CC1(C)CCC2=C(O1)c1ccccc1C(=O)C2=O", "note": "[β-lapachone, 3,4-dihydro-2,2-dimethyl-2H-naphtho [1,2-b]pyran-5,6-dione]", "values": [{"measurement": "E2F1 Induction", "setting": "E2F1; Colon HT-29", "value": "+"}, {"measurement": "E2F1 Induction", "setting": "E2F1; Colon SW480", "value": "+"}, {"measurement": "E2F1 Induction", "setting": "E2F1; Pancreas PANC1", "value": "+"}, {"measurement": "CC50", "setting": "[1]; PaCa-2, read-out: LC50, PaCa-2 Clone A surviving >LC99", "value": 2590, "unit": "nM"}, {"measurement": "CC50", "setting": "[1]; PaCa-2, read-out: LC50, PaCa-2 Clone B surviving >LC99", "value": 2720, "unit": "nM"}, {"measurement": "CC50", "setting": "[1]; PaCa-2, read-out: LC50, PaCa-2 WT", "value": 2690, "unit": "nM"}, {"measurement": "AUC", "setting": "[2]; in vivo, 5 mg/kg", "value": 13600, "unit": "ng·h/mL"}, {"measurement": "half-life", "setting": "[2]; plasma, intravenous, across the dose range, read-out: terminal half-life (converted)", "value": "~16", "unit": "h"}, {"measurement": "Cmax", "setting": "[2]; plasma, iv, 5 mg/kg, 60 min infusion", "value": 750, "unit": "ng/mL"}, {"measurement": "AUC", "setting": "[2]; plasma, iv, 5 mg/kg, 60 min infusion, mean of two dogs, read-out: AUC", "value": 13600, "unit": "ng·h/mL"}, {"measurement": "half-life", "setting": "[2]; plasma, iv, 5 mg/kg, 60 min infusion, read-out: T1/2", "value": "~16", "unit": "h"}, {"measurement": "Cmax", "setting": "[2]; plasma, iv, 15 mg/kg, 60 min infusion", "value": 1150, "unit": "ng/mL"}, {"measurement": "AUC", "setting": "[2]; plasma, iv, 15 mg/kg, 60 min infusion, mean of two dogs, read-out: AUC", "value": 20200, "unit": "ng·h/mL"}, {"measurement": "half-life", "setting": "[2]; plasma, iv, 15 mg/kg, 60 min infusion, read-out: T1/2", "value": "~16", "unit": "h"}, {"measurement": "Cmax", "setting": "[2]; plasma, iv, 30 mg/kg, 60 min infusion", "value": 1480, "unit": "ng/mL"}, {"measurement": "AUC", "setting": "[2]; plasma, iv, 30 mg/kg, 60 min infusion, mean of two dogs, read-out: AUC", "value": 26000, "unit": "ng·h/mL"}, {"measurement": "half-life", "setting": "[2]; plasma, iv, 30 mg/kg, 60 min infusion, read-out: T1/2", "value": "~16", "unit": "h"}, {"measurement": "mean tumor volume", "setting": "[3]; 40 and 60 mg/kg IP every three days, 5 treatments", "value": "reduced the mean tumor volume"}, {"measurement": "toxicity", "setting": "[3]; mouse, in vivo", "value": "No sign of significant toxicity"}, {"measurement": "CC50", "setting": "SK-OV-3", "value": 1290, "unit": "nM"}, {"measurement": "CC50", "setting": "MCF-7", "value": 1560, "unit": "nM"}, {"measurement": "reduction of tidal volume", "setting": "[4]; 20 mg/kg, at 60 minutes", "value": 16, "unit": "%"}, {"measurement": "dynamic compliance", "setting": "[4]; 40 mg/kg", "value": "approximately 52 % of normal"}, {"measurement": "increase of pulmonary resistance", "setting": "[4]; 40 mg/kg", "value": "approximately 50%"}, {"measurement": "decrease in tidal volume", "setting": "[4]; [13]", "value": 41, "unit": "%"}, {"measurement": "respiratory rate", "setting": "[4]; [13]", "value": "four-fold increase"}, {"measurement": "effects on cardiovascular function (BP, blood flow, heart rate, ECG incl. QTc)", "setting": "[4]; up to and including 40 mg/kg over 1 hour", "value": "no significant effects on cardiovascular function"}, {"measurement": "reduction of mean tumor volume", "setting": "[5]", "value": "approximately 50%"}, {"measurement": "plasma levels (preliminary toxicokinetic results)", "setting": "[6]", "value": "significantly above the values predicted"}, {"measurement": "tolerability", "setting": "[6]; iv, 5 mg/kg", "value": "well-tolerated"}, {"measurement": "cell death", "setting": "G480 lung cancer cells; [14]", "value": 68, "unit": "%"}, {"measurement": "survival of cells", "setting": "G480 lung cancer cells; [14]", "value": 32, "unit": "%"}, {"measurement": "Colonies (percent control)", "setting": "G480 lung cancer cells; G480, β-lapachone 4 μM, 4 hours, average (SEM) of three experiments", "value": "32 (0.3) percent control"}, {"measurement": "CC50", "setting": "DU-145", "value": 1100, "unit": "nM"}, {"measurement": "total bilirubin levels", "setting": "[7]; 45 mg/kg dose, predose 0.38 and 0.26", "value": "0.66 mg/dL and 0.87 mg/dL"}, {"measurement": "hemoglobin at end of study", "setting": "[7]; 11-day study, declined from 14.9 and 13.5", "value": "9.1 g/dL and 9.7 g/dL"}, {"measurement": "CC50", "setting": "SK-MEL-28 [8]", "value": 2400, "unit": "nM"}, {"measurement": "number of colonies", "setting": "[9]", "value": "no reduction in the number of colonies"}, {"measurement": "tumor growth", "setting": "[10]; 100 mg/kg in Lipiodol IP q3d, 30-day treatment", "value": "greater suppression of tumor growth"}, {"measurement": "tumor growth", "setting": "[10]; 25 and 50 mg/kg in Lipiodol IP q3d", "value": "inhibited tumor growth in a dose-dependent manner"}, {"measurement": "findings", "setting": "[11]; 15 mg/kg and 35 mg/kg", "value": "signs of reversible extravascular hemolysis"}, {"measurement": "bilirubin", "setting": "[11]; Days 2 and 23, resolved by Day 37", "value": "dose-dependent slight increase"}, {"measurement": "ophthalmologic findings", "setting": "[11]; dog, in vivo", "value": "no drug-related ophthalmologic findings"}, {"measurement": "splenic enlargement (animals)", "setting": "[11]; high-dose (35 mg/kg)", "value": "3/8"}, {"measurement": "decreased hemoglobin", "setting": "[11]; high-dose (35 mg/kg)", "value": "~5", "unit": "g/dL"}, {"measurement": "mean decrease in body weight", "setting": "[11]; high-dose (35 mg/kg), females", "value": "−4", "unit": "%"}, {"measurement": "mean decrease in body weight", "setting": "[11]; high-dose (35 mg/kg), males", "value": "−7", "unit": "%"}, {"measurement": "splenic enlargement (animals)", "setting": "[11]; mid-dose (15 mg/kg)", "value": "5/8"}, {"measurement": "decreased hemoglobin", "setting": "[11]; mid-dose (15 mg/kg)", "value": "~3", "unit": "g/dL"}, {"measurement": "CC50", "setting": "SK-MEL-28 [12]", "value": 2630, "unit": "nM"}]}
